{"source": "patent US12668646B2", "about": "“Cross-linking compounds and methods of use thereof” (North Carolina State University, priority 2019, dated 2026)", "format_in_all_cases": "biochemical", "key": {"[1]": {"target": "T1, β-glucosidase from Agrobacterium sp. (Agrobacterium sp., UniProt P12614)", "T1 construct": "purchased Megazyme", "T1 sequence (P12614 1-459)": "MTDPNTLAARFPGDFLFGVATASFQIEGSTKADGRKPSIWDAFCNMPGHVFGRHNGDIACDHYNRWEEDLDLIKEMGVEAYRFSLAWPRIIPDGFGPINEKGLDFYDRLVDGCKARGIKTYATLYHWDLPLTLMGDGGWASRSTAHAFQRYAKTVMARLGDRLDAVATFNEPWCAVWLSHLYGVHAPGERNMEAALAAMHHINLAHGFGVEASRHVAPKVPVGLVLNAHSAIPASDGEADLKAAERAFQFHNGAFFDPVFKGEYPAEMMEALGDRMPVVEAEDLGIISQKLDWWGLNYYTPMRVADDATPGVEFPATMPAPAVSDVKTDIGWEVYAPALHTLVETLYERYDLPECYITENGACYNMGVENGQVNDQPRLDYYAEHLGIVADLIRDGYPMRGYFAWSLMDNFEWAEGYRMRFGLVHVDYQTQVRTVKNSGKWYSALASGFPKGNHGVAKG", "assay": "Oligomerization of compound V with β-glucosidase", "method": "The oligomerization of compound V was examined by treatment with the enzyme […]-glucosidase. The reaction mixture contained 50 μM of compound V and 200 nM of β-glucosidase (250-fold ratio). The reaction mixture was only faintly blue but upon centrifugation after 5 h of incubation, a blue precipitate was obtained. According to the colors of samples (FIG. 13, panel A), the yield of precipitate is low by comparison with our previously reported enzyme-substrate pairs (see Example 1). Multiple additions of enzyme (4×0.20 μM of enzyme stock, every 2 h) and longer incubation times (10 h or 24 h) were also tested but no increase in solution intensity or precipitate was observed. For the samples after 300 min of incubation, the precipitates suspended in H2O were screened by optical microscopy (FIG. 13, panel B) and DLS (FIG. 13, panel C). The size of aggregates is between 100 and 1000 nm as measured by DLS, which is consistent with the images obtained by optical microscopy (˜1 μm).\nQuantitation of the indigogenic compounds in the precipitate and supernatant was carried out by absorption spectroscopy and multicomponent analysis (MCA) (M. Taniguchi, et al., Photochem. Photobiol., 2018, 94, 277-289) (FIG. 13, panels D and E). MCA analysis is essential due to the overlaid spectra of indigo and coumarin at 362 nm, the peak wavelength for the coumarin. Spectral deconvolution relied on knowledge of the molar absorption coefficient at 362 nm of coumarin (εcou362=2.0×10^4 M^−1 cm^−1 measured in DMF) and indigo model compound F19 (see Example 1 where F-19 is compound 43) shown in Chart 2 (εind362=0.81×10^4 M^−1 cm^−1 measured in DMSO/H2O, v/v=2/1); and the molar absorption coefficient of F19 at 630 nm (εind630=2.6×10^4 M^[…] cm^−1, measured in DMSO/H2O, v/v=2/1). The residual upon MCA was smaller than any of the components, as required for accurate analysis (Y. Mang, et al., Phytochem. Anal., 2018, 29, 205-216). In this manner, the precipitate is composed of 51.6 nmol of coumarin and 2.8 nmol of indigoid dye; the supernatant is composed of 11.1 nmol of coumarin and 0.3 nmol of indigoid dye.\nMaterials. DMF (HPLC grade) was purchased from Alfa Aesar. H2O (molecular biology grade) for buffer preparation was purchased from Millipore Sigma. Compound V (5.6 mg) was dissolved in DMF (26 μL) to prepare 100 mM stock solution. Pi buffer was prepared freshly at 10 mM, pH 7. The enzyme β-glucosidase from Agrobacterium sp. was purchased from MegaZyme and was dissolved in Pi buffer at 10 μM to prepare the stock solution.\nTo screen the oligomerization procedure of compound V, samples of Pi buffer (1859 μL), DMF (100 μL), β-glucosidase stock (40 μL) and compound V stock (1 μL) were mixed in a 2-mL Eppendorf tube. The resulting mixed sample (2.0 mL) contains 50 μM of compound V as the substrate and 0.20 μM of β-glucosidase as the enzyme. Three identical samples were prepared for different assays. For a control sample, 40 μL of Pi buffer was added as a replacement for the β-glucosidase stock solution. The tubes were incubated at 37° C. for 5 h, and pictures of the tubes were captured at 0, 15, 30, 60, 120, 180 and 300 min. After 300 min, the tubes were centrifuged at 20,000×g for 10 min to isolate any precipitate from the supernatant. No precipitate formed in the control sample.\nThree samples were treated differently for three assays: (1) for sample 1, the precipitate was dissolved in 100 μL of DMF for absorption screening; (2) for sample 2, the precipitate was suspended in 100 μL of H2O for microscopic imaging; and (3) for sample 3, the precipitate was suspended in 1000 μL of H2O for dynamic light scattering (DLS) assay. The supernatant of sample 1 was freeze-dried under high vacuum and afterwards dissolved in 100 μL of DMF for absorption screening. The absorption spectra of the precipitates and supernatants were employed for quantitation of indigo and coumarin. […]"}, "[2]": {"tested_on": "β-glucosidase from almonds", "assay": "Indigogenic reaction with β-glucosidase from almonds", "settings": "indoxyl 1 mM, enzyme 1 unit/mL, 0.01M acetate buffer pH 5, 5% DMF, 37° C., 16-19 h; ϵ = 1.27 × 10^4 M^−1 cm^−1 measured for 4"}, "[3]": {"tested_on": "tritosomes", "assay": "Indigoid dye formation with tritosomes", "settings": "result in words", "method": "The results from the glucosidase survey prompted several further experiments. First, a parallel set of studies was carried out with inclusion of several oxidants commonly employed in histochemical studies, given that the indigoid dye forming process requires the presence of an oxidant. […] The activity of the β-glucosidase was affected only slightly in the presence of a non-ionic detergent. To verify that the results observed in Table 1 were reliable, a 5-mg scale reaction of 33 was carried out to isolate indigo 43, which was obtained in 66% yield (Scheme 7). The 66% isolated yield corresponded well with the enzymatic yield of […] (Table 1, entry 15).\nGeneral methods. β-Glucosidase from almonds (lyophilized powder, ≥2 units/mg solid) and peroxidase from horseradish were purchased from Sigma-Aldrich. β-Glucosidase from Agrobacterium sp. (recombinant, suspension in 3.2 M (NH4)2SO4) was purchased from Megazyme; the concentration in solution was determined by absorption spectroscopy with E^0.1%=2.20 cm^−1 at 280 nm.^37 Tritosomes were purchased from XenoTech. Rat liver homogenate was purchased from MP Biomedicals."}, "[4]": {"target": "T2, β-glucosidase from Agrobacterium (Agrobacterium sp., UniProt P12614)", "T2 construct": "purchased Megazyme", "T2 sequence (P12614 1-459)": "T1 sequence (P12614 1-459)", "assay": "Indigogenic reaction with β-glucosidase from Agrobacterium", "method": "Next, the β-glucosidase from Agrobacterium sp. was investigated as the trigger enzyme for indigoid dye formation. […] The reaction was carried out using the enzyme (200 nM) and indoxyl-glucoside 33 (100 μM) in phosphate buffer (pH 4-9, containing 2% DMF) at 37° C. […] Note that with 200 nM enzyme and 100 μM substrate, complete reaction requires 500 turnovers of each enzyme.\nReactions with β-glucosidase from Agrobacterium. An indoxyl compound in DMF (2 μL, 5 mM) and β-glucosidase from Agrobacterium in 10 mM phosphate buffer [2 μL, 10 μM, pH 7.0, containing 50 mM NaCl and 0.6 M (NH4)2SO4] were mixed with 50 mM phosphate buffer (96 μL, pH 7.0). The reaction mixture was incubated at 37° C. for 2 h and then centrifuged for 3 min. Any precipitate was separated from the supernatant and dissolved in DMF (200 μL). The resulting solution was analyzed by absorption spectroscopy. The experiment was repeated three times."}, "[5]": {"target": "T2, β-glucosidase from Agrobacterium", "assay": "Enzyme-triggered oligomerization of bis(indoxyl-glucoside) 46", "method": "Oligomerization of 46 was carried out by treatment with β-glucosidase from Agrobacterium (200 nM) in 10 mM phosphate buffer (pH 7) at 37° C. for 2-4 h (Scheme 9). Precipitation occurred during the reaction. After centrifugation, the precipitate was separated from the supernatant, washed with H2O, and dried to afford a blue solid.\nThe efficacy of the indigogenic oligomerization was examined under a variety of conditions. As shown in entries 1-4 in Table 2, the yield of indigoid dye in the supernatant versus precipitate reversed as the concentration of 46 was decreased from 300 to 10 μM, although the total yields were in the range 17-29%. While the reactions in entries 1-4 were carried out in phosphate buffer containing NaCl (0.05 M), those of entries 5 and 6 (with 300 and 50 μM of 46, respectively) were conducted in NaCl-free phosphate buffer. The use of NaCl-free phosphate buffer facilitated extraction of the indigoid dye in the supernatant for analysis.\nThe time course of the oligomerization was examined under the reaction conditions listed in entry 5 of Table 2, with 300 μM of 46. Noticeable changes include observation of blue clouding and color deepening at 20 min. Centrifugation enabled isolation of the precipitate. […] The absorption spectrum of the precipitate was examined in DMF/DMSO (9:1) and compared with that of the extracted supernatant (in DMF) and 43 (in DMF) (FIG. 10D). […] Size-exclusion chromatography (SEC) [DMF/DMSO (9:1) as eluent] was applied to the precipitate and to the supernatant extract prepared from 300 μM of 46 (FIG. 10E). The first peak appeared at 18-20 min, and then the second peak at 38.5 min. The ratio of peak areas in the supernatant extract was 11:89, whereas that in the precipitate was 93:7. On the basis of a calibration curve prepared with poly(2-vinylpyridine) standards, the molecular size for the first and second peaks was expected to be >265 and <1 kDa, respectively. The large molecular size indicated for the first peak likely implies aggregation or assembly of the oligomers. The chromatograms for the samples prepared with 50 μM of 46 gave similar results but with higher purity compared with those at higher concentration."}, "[6]": {"settings": "100 nmol compound V added, absorption spectroscopy and MCA"}, "[7]": {"settings": "absorption spectroscopy and MCA"}}, "note": "“And” between values parts separate entries of the source, which are not always exact repeats. Equal entries are not always repeated.", "data": [{"molecule": "2,4-Bis[1-(3-(β-D-glucopyranosyloxy)-4,6-dibromo-1H-indol-5-yl)-1,4,7,10-tetraoxadec-10-yl]-6-[14-(3-(2-(1-azido-3,6,9,12,15-pentaoxoheptadecylamino)-4-[12-((4-methyl-2H-chromen-2-one-7-yl)amino)ethylamino]-1,3,5-triazin-6-yloxy)propyl)-4-(3-sulfopropyl)piperazin-1-yl]-1,3,5-triazine [Compound V]", "values": [{"measurement": "Indigoid dye in the precipitate", "setting": "[1]; [6]", "result": 2.8, "unit": "nmol"}, {"measurement": "Indigoid dye in the supernatant", "setting": "[1]; [6]", "result": 0.3, "unit": "nmol"}, {"measurement": "Yield of indigoid dye (total)", "setting": "[1]; 50 μM compound V, 200 nM β-glucosidase, 37° C., 5 h, MCA", "result": 3.1, "unit": "%"}, {"measurement": "Coumarin in the precipitate", "setting": "[1]; [7]", "result": 51.6, "unit": "nmol"}, {"measurement": "Coumarin in the supernatant", "setting": "[1]; [7]", "result": 11.1, "unit": "nmol"}, {"measurement": "Size of aggregates (optical microscopy)", "setting": "[1]; precipitate after 300 min suspended in H2O", "result": "~1", "unit": "μm"}, {"measurement": "Total quantity of indigoid dye", "setting": "[1]; precipitate plus supernatant", "result": 3.1, "unit": "nmol"}, {"measurement": "Total amount of coumarin calculated by MCA", "setting": "[1]; precipitate plus supernatant, 100 nmol compound V added", "result": 62.7, "unit": "nmol"}]}, {"molecule": "5-[(Benzylcarbamoyl)oxy)]-1H-indole-3-yl β-D-glucopyranoside [Compound 16]", "values": [{"measurement": "Yield (%) β-glucosidase from almonds", "setting": "[2]", "result": 24, "unit": "%"}, {"measurement": "Indigoid dye formation with tritosomes", "setting": "[3]", "result": "low yield"}]}, {"molecule": "5-{[(1R,8S,9s)-Bicyclo[6.1.0]non-4-yn-9-yl]methoxy}-4,6-dibromo-1H-indole-3-yl β-D-glucopyranoside [Compound 30]", "values": [{"measurement": "Yield (%) β-glucosidase from Agrobacterium", "setting": "[4]; as E4 but ϵ = 2.6 × 10^4 M^−1 cm^−1 measured for 43", "result": "10% and 10 ± 0.4%"}, {"measurement": "Yield (%) β-glucosidase from Agrobacterium", "setting": "[4]; indoxyl 100 μM, enzyme 200 nM, 0.05M phosphate buffer pH 7.0, 2% DMF, 37° C., 2 h, n=3, ϵ = 1.27 × 10^4 M^−1 cm^−1", "result": "21 ± 1", "unit": "%"}]}, {"molecule": "COc1nc(Oc2ccc3[nH]cc(O[C@@H]4O[C@H](CO)[C@@H](O)[C@H](O)[C@H]4O)c3c2)nc(N2CCOCC2)n1", "note": "[Compound 19, 5-[(4-Methoxy-6-morpholino-1,3,5-triazin-2-yl)oxy]-1H-indole-3-yl β-D-glucopyranoside]", "values": [{"measurement": "Yield (%) β-glucosidase from almonds", "setting": "[2]", "result": "<1", "unit": "%"}, {"measurement": "Indigoid dye formation with tritosomes", "setting": "[3]", "result": "low yield"}]}, {"molecule": "O=S(=O)([O-])CCC[N+]1(CCCO)CCN(c2nc(OCCOCCOCCOc3c(Br)cc4[nH]cc(O[C@@H]5O[C@H](CO)[C@@H](O)[C@H](O)[C@H]5O)c4c3Br)nc(OCCOCCOCCOc3c(Br)cc4[nH]cc(O[C@@H]5O[C@H](CO)[C@@H](O)[C@H](O)[C@H]5O)c4c3Br)n2)CC1", "note": "[Compound 46]", "values": [{"measurement": "Total yield of indigoid dye (supernatant plus precipitate)", "setting": "[5]; entries 1-4 of Table 2, [46] 300 to 10 μM", "result": "17-29%"}, {"measurement": "Yield of indigoid dye (%) supernatant", "setting": "[5]; entry 1: [46] 300 μM, 2 h, phosphate buffer containing NaCl (0.05M), ε = 2.6 × 10^4", "result": 6, "unit": "%"}, {"measurement": "Yield of precipitate based on the monomer formula weight", "setting": "[5]; larger scale (7.87 mg), conditions of entry 5 in Table 2", "result": 49, "unit": "%"}, {"measurement": "Particle size of the precipitate (DLS, number mean)", "setting": "[5]; precipitate suspended in H2O, 300 μM of 46, entry 5 conditions", "result": "~680", "unit": "nm"}]}]}
